Results published in PubChem BioAssay AID248 (DTP/NCI, 2004).
Where “and” joins values, the source holds several entries; their conditions need not be identical. Equal entries are not always repeated. Inconclusive results and toxic doses are left out.

System: L1210 leukemia ip in BDF1 mice, survival T/C
Experiment: NCI In Vivo Anticancer Drug Screen. Data for tumor model L1210 Leukemia (intraperitoneal) in B6D2F1 (BDF1) mice
Details: endpoint: mean survival time, higher = longer survival
Method in brief: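 Tumor cells were implanted, animals were treated, and survival was followed. The result divides the treated measurement by the vehicle-control measurement.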

SMILES: N=[N+]=CC(=O)CCC(NC(=O)C(CCC(=O)C=[N+]=N)NC(=O)CCC(N)C(=O)O)C(=O)O (stereo unspecified)
- T/C (dose: 0.01 mg/kg/injection, schedule: Q01DX009 (ip), vehicle: water): 114 % of control
- T/C (dose: 0.02 mg/kg/injection, schedule: Q01DX009 (ip), vehicle: other): 110 % of control
- T/C (dose: 0.02 mg/kg/injection, schedule: Q01DX015 (ip), vehicle: water): 93 % of control
- T/C (dose: 0.05 mg/kg/injection, schedule: Q01DX009 (ip), vehicle: other): 102 % of control and 115 % of control
- T/C (dose: 0.05 mg/kg/injection, schedule: Q01DX015 (ip), vehicle: water): 102 % of control
- T/C (dose: 0.05 mg/kg/injection, schedule: Q01DX017 (ip), vehicle: saline): 98 % of control and 106 % of control
- T/C (dose: 0.05 mg/kg/injection, schedule: Q02DX009 (ip), vehicle: saline): 98 % of control
- T/C (dose: 0.05 mg/kg/injection, schedule: Q03HX024 (ip), vehicle: water): 93 % of control
- T/C (dose: 0.07 mg/kg/injection, schedule: Q01DX009 (ip), vehicle: water): 156 % of control
- T/C (dose: 0.1 mg/kg/injection, schedule: Q01DX009 (ip), vehicle: other): 117 % of control
- T/C (dose: 0.1 mg/kg/injection, schedule: Q01DX015 (ip), vehicle: water): 108 % of control
- T/C (dose: 0.1 mg/kg/injection, schedule: Q01DX017 (ip), vehicle: saline): 123 % of control
- T/C (dose: 0.1 mg/kg/injection, schedule: Q02DX009 (ip), vehicle: saline): 116 % of control
- T/C (dose: 0.1 mg/kg/injection, schedule: Q04DX005 (ip), vehicle: saline): 102 % of control
- T/C (dose: 0.2 mg/kg/injection, schedule: Q01DX009 (ip), vehicle: other): 107 % of control
- T/C (dose: 0.2 mg/kg/injection, schedule: Q01DX017 (ip), vehicle: saline): 158 % of control
- T/C (dose: 0.2 mg/kg/injection, schedule: Q02DX009 (ip), vehicle: saline): 123 % of control
- T/C (dose: 0.2 mg/kg/injection, schedule: Q04DX005 (ip), vehicle: saline): 104 % of control
- T/C (dose: 0.2 mg/kg/injection, schedule: Q08DX003 (ip), vehicle: saline): 112 % of control
- T/C (dose: 0.4 mg/kg/injection, schedule: Q01DX015 (ip), vehicle: other): 117 % of control
- T/C (dose: 0.4 mg/kg/injection, schedule: Q01DX015 (ip), vehicle: water): 153 % of control
- T/C (dose: 0.4 mg/kg/injection, schedule: Q01DX017 (ip), vehicle: saline): 110 % of control and 123 % of control
- T/C (dose: 0.4 mg/kg/injection, schedule: Q04DX005 (ip), vehicle: saline): 121 % of control
- T/C (dose: 0.4 mg/kg/injection, schedule: Q08DX003 (ip), vehicle: saline): 107 % of control
- T/C (dose: 0.6 mg/kg/injection, schedule: Q01DX015 (ip), vehicle: water): 183 % of control
- T/C (dose: 0.8 mg/kg/injection, schedule: Q04DX005 (ip), vehicle: saline): 118 % of control
- T/C (dose: 0.8 mg/kg/injection, schedule: Q08DX003 (ip), vehicle: saline): 109 % of control
- T/C (dose: 1.0 mg/kg/injection, schedule: Q01DX009 (oral), vehicle: water): 96 % of control
- T/C (dose: 1.0 mg/kg/injection, schedule: Q02DX005 (ip), vehicle: other): 160 % of control
- T/C (dose: 1.0 mg/kg/injection, schedule: Q02DX005 (oral), vehicle: other): 163 % of control
- T/C (dose: 1.25 mg/kg/injection, schedule: Q02DX008 (ip), vehicle: other): 189 % of control
- T/C (dose: 1.25 mg/kg/injection, schedule: Q02DX008 (ip), vehicle: water): 166 % of control
- T/C (dose: 1.25 mg/kg/injection, schedule: Q02DX008 (oral), vehicle: water): 156 % of control
- T/C (dose: 1.6 mg/kg/injection, schedule: Q08DX003 (ip), vehicle: saline): 110 % of control
- T/C (dose: 2.0 mg/kg/injection, schedule: Q02DX005 (oral), vehicle: other): 186 % of control
- T/C (dose: 2.5 mg/kg/injection, schedule: Q02DX008 (oral), vehicle: water): 154 % of control
- T/C (dose: 4.0 mg/kg/injection, schedule: Q02DX005 (ip), vehicle: other): 176 % of control
- T/C (dose: 4.0 mg/kg/injection, schedule: Q02DX005 (oral), vehicle: other): 195 % of control
- T/C (dose: 5.0 mg/kg/injection, schedule: Q02DX008 (ip), vehicle: other): 206 % of control
- T/C (dose: 5.0 mg/kg/injection, schedule: Q04DX003 (ip), vehicle: other): 155 % of control
- T/C (dose: 5.0 mg/kg/injection, schedule: Q04DX003 (ip), vehicle: saline): 170 % of control
- T/C (dose: 6.0 mg/kg/injection, schedule: Q02DX005 (ip), vehicle: other): 197 % of control
- T/C (dose: 6.0 mg/kg/injection, schedule: Q02DX005 (oral), vehicle: other): 204 % of control
- T/C (dose: 6.2 mg/kg/injection, schedule: Q03HX024 (ip), vehicle: water): 193 % of control
- T/C (dose: 8.0 mg/kg/injection, schedule: Q02DX005 (ip), vehicle: other): 183 % of control
- T/C (dose: 8.0 mg/kg/injection, schedule: Q02DX005 (oral), vehicle: other): 200 % of control
- T/C (dose: 10.0 mg/kg/injection, schedule: Q02DX008 (ip), vehicle: other): 117 % of control
- T/C (dose: 10.0 mg/kg/injection, schedule: Q02DX008 (oral), vehicle: other): 166 % of control
- T/C (dose: 10.0 mg/kg/injection, schedule: Q04DX003 (ip), vehicle: other): 155 % of control and 173 % of control
- T/C (dose: 10.0 mg/kg/injection, schedule: Q04DX003 (ip), vehicle: saline): 192 % of control
- T/C (dose: 10.0 mg/kg/injection, schedule: Q04DX003 (ip), vehicle: water): 167 % of control
- T/C (dose: 12.5 mg/kg/injection, schedule: Q01DX001 (ip), vehicle: clinical formulation): 112 % of control
- T/C (dose: 12.5 mg/kg/injection, schedule: Q01DX001 (ip), vehicle: saline): 119 % of control and 122 % of control
- T/C (dose: 12.5 mg/kg/injection, schedule: Q03HX024 (ip), vehicle: water): 97 % of control
- T/C (dose: 15.0 mg/kg/injection, schedule: Q02DX008 (oral), vehicle: other): 104 % of control
- T/C (dose: 15.0 mg/kg/injection, schedule: Q## X003 (ip), vehicle: water): 185 % of control
- T/C (dose: 20.0 mg/kg/injection, schedule: Q02DX008 (oral), vehicle: other): 116 % of control
- T/C (dose: 20.0 mg/kg/injection, schedule: Q04DX003 (ip), vehicle: other): 166 % of control
- T/C (dose: 20.0 mg/kg/injection, schedule: Q04DX003 (ip), vehicle: saline): 188 % of control
- T/C (dose: 20.0 mg/kg/injection, schedule: Q04DX003 (ip), vehicle: water): 167 % of control and 171 % of control
- T/C (dose: 20.0 mg/kg/injection, schedule: Q## X006 (ip), vehicle: water): 156 % of control
- T/C (dose: 25.0 mg/kg/injection, schedule: Q01DX001 (ip), vehicle: clinical formulation): 123 % of control
- T/C (dose: 25.0 mg/kg/injection, schedule: Q07DX002 (ip), vehicle: water): 156 % of control and 167 % of control
- T/C (dose: 30.0 mg/kg/injection, schedule: Q04DX003 (ip), vehicle: other): 202 % of control
- T/C (dose: 30.0 mg/kg/injection, schedule: Q## X003 (ip), vehicle: water): 209 % of control
- T/C (dose: 40.0 mg/kg/injection, schedule: Q04DX003 (ip), vehicle: saline): 170 % of control
- T/C (dose: 40.0 mg/kg/injection, schedule: Q04DX003 (ip), vehicle: water): 200 % of control and 206 % of control
- T/C (dose: 40.0 mg/kg/injection, schedule: Q## X003 (ip), vehicle: water): 194 % of control
- T/C (dose: 40.0 mg/kg/injection, schedule: Q## X006 (ip), vehicle: water): 188 % of control
- T/C (dose: 50.0 mg/kg/injection, schedule: Q01DX001 (ip), vehicle: saline): 150 % of control
- T/C (dose: 50.0 mg/kg/injection, schedule: Q01DX001 (ip), vehicle: water): 111 % of control
- T/C (dose: 50.0 mg/kg/injection, schedule: Q07DX002 (ip), vehicle: other): 158 % of control
- T/C (dose: 50.0 mg/kg/injection, schedule: Q## X003 (ip), vehicle: water): 178 % of control
- T/C (dose: 60.0 mg/kg/injection, schedule: Q04DX003 (ip), vehicle: water): 195 % of control
- T/C (dose: 60.0 mg/kg/injection, schedule: Q## X003 (ip), vehicle: water): 185 % of control
- T/C (dose: 60.0 mg/kg/injection, schedule: Q## X006 (ip), vehicle: water): 115 % of control
- T/C (dose: 75.0 mg/kg/injection, schedule: Q07DX002 (ip), vehicle: water): 192 % of control
- T/C (dose: 80.0 mg/kg/injection, schedule: Q04DX003 (ip), vehicle: saline): 100 % of control
- T/C (dose: 80.0 mg/kg/injection, schedule: Q04DX003 (ip), vehicle: water): 159 % of control
- T/C (dose: 80.0 mg/kg/injection, schedule: Q## X006 (ip), vehicle: water): 115 % of control
- T/C (dose: 100.0 mg/kg/injection, schedule: Q01DX001 (ip), vehicle: clinical formulation): 153 % of control
- T/C (dose: 100.0 mg/kg/injection, schedule: Q07DX002 (ip), vehicle: other): 171 % of control
- T/C (dose: 100.0 mg/kg/injection, schedule: Q07DX002 (ip), vehicle: water): 194 % of control
- T/C (dose: 150.0 mg/kg/injection, schedule: Q07DX002 (ip), vehicle: water): 194 % of control
- T/C (dose: 200.0 mg/kg/injection, schedule: Q01DX001 (ip), vehicle: other): 158 % of control
- T/C (dose: 200.0 mg/kg/injection, schedule: Q01DX001 (ip), vehicle: saline): 96 % of control
- T/C (dose: 200.0 mg/kg/injection, schedule: Q01DX001 (ip), vehicle: water): 109 % of control
- T/C (dose: 200.0 mg/kg/injection, schedule: Q01DX001 (oral), vehicle: other): 155 % of control
- T/C (dose: 250.0 mg/kg/injection, schedule: Q01DX001 (ip), vehicle: water): 117 % of control
- T/C (dose: 300.0 mg/kg/injection, schedule: Q01DX001 (ip), vehicle: other): 101 % of control
- T/C (dose: 300.0 mg/kg/injection, schedule: Q01DX001 (ip), vehicle: water): 96 % of control and 106 % of control
